Experiments:
[1] = system: Subtilisin (Bacillus); assay: Inhibitory activity against subtilisin
[2] = system: Subtilisin (Bacillus); assay: The ratio (ki + kH)/ki (turnover ratio) was determined using ultimate activity assay
[3] = system: Subtilisin (Bacillus); assay: Ratio of the kinetic constants kH versus ki was reported
[4] = system: Subtilisin (Bacillus); assay: Ratio of the kinetic constants (ki X 10e3) versus Ki was reported
[5] = biological target: Chymotrypsinogen A (Bos taurus) (UniProt P00766); assay: (§1) Ratio of the kinetic constants (ki X 10e3) versus Ki was reported
[6] = biological target: Chymotrypsinogen A (Bos taurus) (UniProt P00766); assay: (§2) Ratio of the kinetic constants kH versus ki was reported
[7] = biological target: Chymotrypsinogen A (Bos taurus) (UniProt P00766); assay: (§3) The ratio (ki + kH)/ki (turnover ratio) was determined using ultimate activity assay
[8] = biological target: Chymotrypsinogen A (Bos taurus, UniProt P00766); assay: (§4) Inhibitory activity against alpha-chymotrypsin
[9] = biological target: Chymotrypsinogen A (Bos taurus) (UniProt P00766); assay: as §4
[10] = as §1
[11] = as §2
[12] = (§5) Inhibitory activity against subtilisin
[13] = as §3
[14] = as §5; remark: listed apart in the source
[15] = as §5; remark: listed apart in the source

Row | Ratio [5] [M⁻¹ min⁻¹] | Ratio [6] | Ratio [7] | Ki [8] [µM] | k obs [9] [s⁻¹] | kH [9] [s⁻¹] | SMILES | other results
1 |  |  |  |  |  |  | CCOC(=O)[C@H](Cc1ccc(OCC2CO2)cc1)NC(C)=O (some centres not stated) | k obs [1]: 0.0011 s⁻¹; kH [1]: 13.8 s⁻¹; Ratio [2]: 2000; Ratio [3]: 3900; Ratio [4]: 1000 M⁻¹ min⁻¹
2 | 14000 | 60 | 20 | 59 | 0.00056 | 0.83 | O=C(N[C@@H](Cc1ccc(OCCC2CO2)cc1)C(=O)Nc1ccc([N+](=O)[O-])cc1)c1ccccc1 (some centres not stated) | 
3 |  |  |  |  |  |  | CCOC(=O)[C@H](Cc1ccc(OCCC2CO2)cc1)NC(C)=O (some centres not stated) | Ratio [10]: 3900 M⁻¹ min⁻¹; Ratio [11]: 1300; Ki [12]: 140 µM; Ratio [13]: 500; Ki [14]: 0.0092 s⁻¹; k obs [15]: 0.0014 s⁻¹; kH [15]: 11.8 s⁻¹
4 | 2400 | 109 | 26 | 35 | 0.00017 | 0.15 | CCOC(=O)[C@H](Cc1ccc(OCCCC2CO2)cc1)NC(=O)c1ccccc1 (some centres not stated) | 
5 | 14600 | 28 | 13 | 57 | 0.00027 | 0.38 | CCOC(=O)[C@H](Cc1ccc(OCCC2CO2)cc1)NC(=O)c1ccccc1 (some centres not stated) | 
6 | 260 | 300 | 68 | 380 | 0.00055 | 5.2 | CCOC(=O)[C@H](Cc1ccc(OCC2CO2)cc1)NC(=O)c1ccccc1 (some centres not stated) | 
7 | 3000 | 184 | 80 | 66 | 0.00037 | 0.61 | O=C(N[C@@H](Cc1ccc(OCC2CO2)cc1)C(=O)Nc1ccc([N+](=O)[O-])cc1)c1ccccc1 (some centres not stated) | 
